Drawing on patent US9963434B2, “N-arylmethyl sulfonamide negative modulators of NR2A” (LUC THERAPEUTICS, priority 2013, dated 2018), this text covers IC50 for 14 molecules.

pIC50: −log10 of the molar value. Read-outs that look alike come from different tables or passages of the source.

This assay addresses NR1/NR2A (Homo sapiens (Human), UniProt Q05586+Q12879). In words: FDSS Ca2+ influx inhibition assay in HEK293 cells expressing NR1/NR2A. The settings on record: 3 μM glutamate, 3 μM glycine, 1 mM Ca2+. The format is cell-based. In short, it runs like this: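 Fluo-8-loaded HEK293 NR1/NR2A cells preincubated 10 min with compound at 10 μM final (0.1% DMSO) in Ca2+/Mg2+-free HBSS with 20 mM HEPES. Stimulated with 3 μM glutamate, 3 μM glycine, 1 mM Ca2+; FDSS recording for 3 min, end/baseline fluorescence ratio compared with MK801.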

[1] abbreviates: inhibition relative to MK801, read-out: NR2A IC50.

Sequence of NR1/NR2A (Q12879 23-1464, other chains not shown): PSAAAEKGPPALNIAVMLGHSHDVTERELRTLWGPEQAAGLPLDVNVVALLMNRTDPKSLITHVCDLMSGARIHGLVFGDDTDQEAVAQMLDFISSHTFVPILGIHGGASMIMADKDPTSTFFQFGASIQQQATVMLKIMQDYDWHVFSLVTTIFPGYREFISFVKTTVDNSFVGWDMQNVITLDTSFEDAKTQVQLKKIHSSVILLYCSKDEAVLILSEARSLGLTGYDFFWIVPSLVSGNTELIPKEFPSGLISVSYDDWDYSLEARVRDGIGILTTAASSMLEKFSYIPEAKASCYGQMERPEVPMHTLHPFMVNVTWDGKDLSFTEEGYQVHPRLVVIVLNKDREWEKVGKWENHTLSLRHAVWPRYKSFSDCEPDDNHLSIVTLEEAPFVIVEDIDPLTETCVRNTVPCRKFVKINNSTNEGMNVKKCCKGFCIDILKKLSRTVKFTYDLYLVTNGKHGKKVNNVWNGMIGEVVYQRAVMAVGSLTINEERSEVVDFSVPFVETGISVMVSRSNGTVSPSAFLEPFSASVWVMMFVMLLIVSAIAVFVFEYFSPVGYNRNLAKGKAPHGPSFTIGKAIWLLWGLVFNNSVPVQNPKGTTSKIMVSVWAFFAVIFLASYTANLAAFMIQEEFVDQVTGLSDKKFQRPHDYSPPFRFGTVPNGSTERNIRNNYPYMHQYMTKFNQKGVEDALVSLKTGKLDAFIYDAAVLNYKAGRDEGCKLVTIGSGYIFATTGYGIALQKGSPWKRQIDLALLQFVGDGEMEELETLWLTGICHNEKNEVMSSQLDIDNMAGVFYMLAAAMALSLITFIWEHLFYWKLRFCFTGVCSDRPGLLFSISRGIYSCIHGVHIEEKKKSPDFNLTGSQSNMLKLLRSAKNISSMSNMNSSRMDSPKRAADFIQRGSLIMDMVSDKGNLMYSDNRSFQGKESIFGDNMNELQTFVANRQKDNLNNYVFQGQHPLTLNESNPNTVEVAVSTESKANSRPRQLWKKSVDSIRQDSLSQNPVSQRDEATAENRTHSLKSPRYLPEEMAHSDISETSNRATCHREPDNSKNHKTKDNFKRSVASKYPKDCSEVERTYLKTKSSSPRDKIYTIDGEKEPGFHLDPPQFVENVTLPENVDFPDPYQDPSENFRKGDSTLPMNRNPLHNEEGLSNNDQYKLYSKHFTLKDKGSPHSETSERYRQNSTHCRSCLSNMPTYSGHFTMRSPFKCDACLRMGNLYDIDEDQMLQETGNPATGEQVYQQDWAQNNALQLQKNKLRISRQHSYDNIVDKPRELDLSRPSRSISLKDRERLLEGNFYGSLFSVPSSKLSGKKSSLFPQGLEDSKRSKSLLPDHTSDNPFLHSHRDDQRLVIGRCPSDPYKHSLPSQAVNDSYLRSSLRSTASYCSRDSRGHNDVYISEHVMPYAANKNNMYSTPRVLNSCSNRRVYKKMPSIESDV

With `O=C(NCc1ncccc1C(F)(F)F)c1ccc(CNS(=O)(=O)c2ccc(F)c(Cl)c2)cn1` [5-(3-chloro-4-fluorobenzenesulfon-amidomethyl)-N-{[3-(trifluoromethyl)pyridin-2-yl]methyl}pyridine-2-carboxamide], the pIC50 is 5.00 under setting [1] and below 5.00 (read-out: Binned Activity).

With `O=C(NCc1ncc(C(F)(F)F)cc1Cl)c1cnc(CNS(=O)(=O)c2ccc(F)c(Cl)c2)cn1` [5-(3-chloro-4-fluorobenzenesulfon-amidomethyl)-N-{[3-chloro-5-(trifluoromethyl)pyridin-2-yl]methyl}pyrazine-2-carboxamide], the pIC50 is, setting by setting: under setting [1], 5.00; (read-out: Binned Activity) below 5.00.

For the molecule `O=C(NCc1ncc(C(F)(F)F)cc1Cl)c1ccc(CNS(=O)(=O)c2ccc(F)c(Cl)c2)cn1` [5-(3-chloro-4-fluorobenzenesulfon-amidomethyl)-N-{[3-chloro-5-(trifluoromethyl)pyridin-2-yl]methyl}pyridine-2-carboxamide], the pIC50 by setting is: under setting [1], 5.00; (read-out: Binned Activity) below 5.00.

`COc1cccc(CNC(=O)c2ccc(CNS(=O)(=O)c3ccc(F)c(Cl)c3)cn2)c1` [5-(3-chloro-4-fluorobenzenesulfon-midomethyl)-N-[(3-methoxyphenyl)methyl] pyridine-2-carboxamide]: for the setting “read-out: Binned Activity”, the pIC50 is 5.00 to 6.00.

With `Cc1ncc(CNC(=O)c2cnc(CNS(=O)(=O)c3cccc(Cl)c3)cn2)s1` [5-(3-chlorobenzenesulfon-amidomethyl)-N-[(2-methyl-1,3-thiazol-5-yl)methyl]pyrazine-2-carboxamide], the pIC50 (read-out: Binned Activity) was 6.00 to 7.00.

Regarding `Cc1ncc(CNC(=O)c2ccc(CNS(=O)(=O)c3cccc(Cl)c3)cn2)s1` [5-(3-chlorobenzenesulfon-amidomethyl)-N-[(2-methyl-1,3-thiazol-5-yl)methyl]pyridine-2-carboxamide], the pIC50 (read-out: Binned Activity) was 5.00 to 6.00.

With `Cc1ncc(CNC(=O)c2cnc(CNS(=O)(=O)c3cccc(Cl)c3)c(C)n2)s1` [5-(3-chlorobenzenesulfon-midomethyl)-6-methyl-N-[(2-methyl-1,3-thiazol-5-yl)methyl]pyrazine-2-carboxamide], the pIC50 (read-out: Binned Activity) is above 7.00.

Take `Cc1ncc(CNC(=O)c2cnc(CNS(=O)(=O)c3ccc(Cl)c(F)c3)c(C)n2)s1` [5-(4-chloro-3-fluorobenzenesulfon-amidomethyl)-6-methyl-N-[(2-methyl-1,3-thiazol-5-yl)methyl]pyrazine-2-carboxamide]: under “read-out: Binned Activity”, the pIC50 was 5.00 to 6.00.

`Cc1ncc(CNC(=O)c2cnc(CNS(=O)(=O)c3ccc(Cl)c(F)c3)cn2)s1` [5-(4-chloro-3-fluorobenzenesulfon-amidomethyl)-N-[(2-methyl-1,3-thiazol-5-yl)methyl]pyrazine-2-carboxamide]: the pIC50 by setting is: under setting [1], 5.00; (read-out: Binned Activity) below 5.00.

As for `Cc1ncc(CNC(=O)c2ccc(CNS(=O)(=O)c3ccc(Cl)c(F)c3)cn2)s1` [5-(4-chloro-3-fluorobenzenesulfon-amidomethyl)-N-[(2-methyl-1,3-thiazol-5-yl)methyl]pyridine-2-carboxamide], for the setting “read-out: Binned Activity”, the pIC50 is 5.00 to 6.00.

Consider `Cc1ncc(CNC(=O)c2cnc(CNS(=O)(=O)c3ccc(F)cc3)c(C)n2)s1` [5-(4-fluorobenzenesulfon-amidomethyl)-6-methyl-N-[(2-methyl-1,3-thiazol-5-yl)methyl]pyrazine-2-carboxamide], for which, under “read-out: Binned Activity”, the pIC50 was 6.00 to 7.00.

In the case of `Cc1ncc(CNC(=O)c2ccc(CNS(=O)(=O)c3ccc(F)cc3)cn2)s1` [5-(4-fluorobenzenesulfon-amidomethyl)-N-[(2-methyl-1,3-thiazol-5-yl)methyl]pyridine-2-carboxamide], the pIC50 (read-out: Binned Activity) is 5.00 to 6.00.

Consider `Cc1ncc(CNC(=O)c2cnc(CNS(=O)(=O)c3ccc(F)cc3)cn2)s1` [5-(4-fluorobenzenesulfon-midomethyl)-N-[(2-methyl-1,3-thiazol-5-yl)methyl]pyrazine-2-carboxamide], for which the pIC50 (read-out: Binned Activity) was 5.00 to 6.00.

For the molecule `Cc1ncc(CNC(=O)c2cnc(CNS(=O)(=O)c3cc(Cl)ccc3F)c(C)n2)s1` [5-(5-chloro-2-fluorobenzenesulfon-amidomethyl)-6-methyl-N-[(2-methyl-1,3-thiazol-5-yl)methyl]pyrazine-2-carboxamide], the pIC50 (read-out: Binned Activity) is 5.00 to 6.00.
